Data reported in patent US6313305A, “Cephalosporins” (Hoechst Marion Roussel, priority 1991, dated 2001).
Values after ≈ are worked out from the molar mass of the structure shown. Structures can show the parent of a compound that is named as a salt.

Key:
Type in all cases: cell-based
[1] = tested on: Enterobacteria producting β lactamase with enlarged spectrum (16 strains); assay: In vitro activity, method of dilutions in solid medium (TABLE II): Enterobacteria producing β lactamase with enlarged spectrum; conditions: 24 h
Experimental: (§1) In Vitro Activity, Method of Dilutions in Solid Medium
(§2) A series of dishes was prepared in which an equal amount of sterile nutritional medium was distributed containing increasing amounts of the test product. Then, each dish was seeded with several bacteria strains and after incubation in an oven for 24 hours at 37° C., the growth inhibition was evaluated by the absence of any bacterial development, which allowed the minimal inhibiting concentrations (M.I.C.) to be determined expressed in micrograms/ml. The results were expressed in M.I.C. 90 which is the minimum concentration of antibiotic allowing the growth of the strains studied to be inhibited by […] (TABLE II).

[2] = tested on: Enterobacteria producing cephalosporinases (20 strains); assay: In vitro activity, method of dilutions in solid medium (TABLE II): Enterobacteria producing cephalosporinases; conditions: 24 h
Experimental: as §1, §2

[3] = tested on: Pseudomonas Aeruginosa (39 strains); assay: In vitro activity, method of dilutions in solid medium (TABLE II): Pseudomonas aeruginosa; conditions: 24 hours at 37° C.
Experimental: as §1, §2

[4] = tested on: oracillin-sensitive penicillin-resistants Staphylococci aureus (20 strains); assay: In vitro activity, method of dilutions in solid medium (TABLE II): oracillin-sensitive penicillin-resistant Staphylococcus aureus; conditions: 24 hours at 37° C.
Experimental: as §1, §2

Row | Compound | MIC90 [1] [µg/mL] | MIC90 [2] [µg/mL] | MIC90 [3] [µg/mL] | MIC90 [4] [µg/mL]
1 | Nc1nc(/C(=N/OC(C(=O)O)c2cc(Cl)c(O)c(O)c2Cl)C(=O)N[C@@H]2C(=O)N3C(C(=O)[O-])=C(/C=C/C[n+]4cccc5c4CCC5)CS[C@H]23)cs1 (stereo partly drawn) [Example 27, Internal salt of (6R-(3-(E) 6α, 7β-(Z)))-1-(3-(7-(((2-amino-4-thiazolyl)-(carboxy-(2,5-dichloro-3,4-dihydroxy-phenyl)-methoxy)-imino)-acetamido)-2-carboxy-8-oxo-5-thia-1-azabicyclo[4,2,0]oct-2-en-3-yl)-2-propenyl)-6,7-dihydro-5H-pyrindinium] | 10 | 0.3 | 0.08 | 5
2 | COc1cc(C(O/N=C(\C(=O)N[C@@H]2C(=O)N3C(C(=O)[O-])=C(/C=C/C[n+]4cccc5ccccc54)CS[C@H]23)c2csc(N)n2)C(=O)O)c(Cl)c(O)c1O (stereo partly drawn) [Example 43] | 1.2 (≈ 1.56 µM) | 2.5 (≈ 3.26 µM) | 1.2 (≈ 1.56 µM) | 0.3 (≈ 0.391 µM)
3 | Nc1nc(/C(=N/OC(C(=O)O)c2cc(F)c(O)c(O)c2F)C(=O)N[C@@H]2C(=O)N3C(C(=O)[O-])=C(/C=C/C[n+]4ccn5ccccc54)CS[C@H]23)cs1 (stereo partly drawn) [Example 39, Internal Salt of (6R-(3-(E) 6α, 7β(Z)))-1-(3-(7-(((2-Amino-4-thiazolyl)(carboxy-(2,5-difluoro-3,4-dihydroxyphenyl)-methoxy)-imino)-acetamido)-2-carboxy-8-oxo-5-thia-1-azabicyclo[4,2,0]oct-2-en-3-yl)-2-propenyl)-imidazo(1,2-a)pyridinium] | 2.5 | 0.3 | 0.08 | 2.5
